Test results published in PubChem BioAssay AID1053203 (The Scripps Research Institute Molecular Screening Center, 2014).

Test: T. brucei bloodstream parasite growth inhibition, late-stage follow-up, counter-screen for T. brucei MetRS inhibitor project, absorbance, round 2, provider-run (AID 1053203)
Settings: T. brucei Lister 427 bloodstream growth, AlamarBlue, 48 h

Q: Which results are given for `CCN(CC)C(=O)C(=O)c1cn(CC(=O)Nc2cc(C)cc(C(F)(F)F)c2)c2ccccc12`?
A: IC50 (run 1): 1720 nM; IC50 (run 2): 2090 nM

Q: For `CCN(CC)C(=O)C(=O)c1cn(CC(=O)Nc2cccc(C(F)(F)F)c2)c2cc(OC)ccc12`, which IC50 (run 1) is on record?
A: > 10000 nM

Q: With `CCN(CC)C(=O)C(=O)c1cn(CC(=O)Nc2cc(C(F)(F)F)cc(C(F)(F)F)c2)c2ccccc12` as the compound, how does the IC50 (run 1) read?
A: 2600 nM

Q: With `CCN(CC)C(=O)C(=O)c1cn(CC(=O)Nc2cc(Cl)cc(C(F)(F)F)c2)c2ccccc12` as the compound, how does the IC50 (run 1) read?
A: 2640 nM

Q: What does the source list for `CCN(CC)C(=O)C(=O)c1cn(CC(=O)Nc2cc(Oc3ccccc3)cc(C(F)(F)F)c2)c2ccccc12`?
A: IC50 (run 1): 1150 nM; IC50 (run 2): 1070 nM

Q: Which IC50 (run 1) does the source give for `CCN(CC)C(=O)C(=O)c1cn(CC(=O)Nc2cc(Br)cc(C(F)(F)F)c2)c2ccccc12` here?
A: 3360 nM
